# Assay results as given in ChEMBL document CHEMBL1201862, “PubChem BioAssay data set” (2004).
#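 Test compounds were applied to cells in 96-well plates for 48 hours at 5 doses. Abbreviation: GI50, concentration required for 50% inhibition of growth.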 Activity calls are given as the source filed them. No stated cut-off is given here; in the data, active = GI50 up to about 1.1 µM and inactive = higher.
# Columns and labels:
# Test in all cases: NCI-60 cell line screen, 48 h
# [1] = system: HOP-92
# [2] = system: CCRF-CEM
# [3] = system: SN12C
# [4] = system: UACC-62
# [5] = system: SK-MEL-28
# [6] = system: MOLT-4
# [7] = system: LXFL 529
# [8] = system: IGROV-1
# [9] = system: A549
# [10] = system: HL-60
# [11] = system: K562
# [12] = system: SK-MEL-5
# [13] = system: OVCAR-8
# [14] = system: COLO 205
# [15] = system: SK-OV-3
# [16] = system: NCI-H522
# [17] = system: DMS-273
# [18] = system: NCI-H23
# [19] = system: OVCAR-4
# [20] = system: SF-539
# [21] = system: SNB-75
# [22] = system: TK-10
# [23] = system: EKVX
# [24] = system: RPMI-8226
# [25] = system: OVCAR-3
# [26] = system: M19-MEL
# [27] = system: UACC-257
# [28] = system: CAKI-1
# [29] = system: LOX IMVI
# [30] = system: KM12
# [31] = system: HT-29
# [32] = system: NCI-H226
# [33] = system: HCC 2998
# [34] = system: SW-620
# [35] = system: SNB-78
# [36] = system: HCT-15
# [37] = system: XF498
# [38] = system: DMS-114
# [39] = system: M14
# [40] = system: HOP-62
# [41] = system: OVCAR-5
# [42] = system: SNB-19
# [43] = system: HCT-116
# [44] = system: NCI-H460
# [45] = system: RXF 393
# [46] = system: HOP-18
# [47] = system: SK-MEL-2
# [48] = system: ACHN
# [49] = system: U-251
# [50] = system: A498
# [51] = system: DLD-1
# [52] = system: UO-31
# [53] = system: SF-268
# [54] = system: Malme-3M
# [55] = system: KM-20L2
# [56] = system: SF-295
# [57] = system: NCI/ADR-RES
# [58] = system: MCF7
compound,measurement,setting,value
CCN(CC)CSc1nc2ccccc2s1,GI50,[1],> 100 µM (inactive)
same,GI50,[2],> 100 µM (inactive)
same,GI50,[3],> 100 µM (inactive)
same,GI50,[4],> 100 µM (inactive)
same,GI50,[5],> 100 µM (inactive)
same,GI50,[6],> 100 µM (inactive)
same,GI50,[7],> 100 µM (inactive)
same,GI50,[8],> 100 µM (inactive)
same,GI50,[9],> 100 µM (inactive)
same,GI50,[10],> 100 µM (inactive)
same,GI50,[11],> 100 µM (inactive)
same,GI50,[12],> 100 µM (inactive)
same,GI50,[13],> 100 µM (inactive)
same,GI50,[14],> 100 µM (inactive)
same,GI50,[15],> 100 µM (inactive)
same,GI50,[16],> 100 µM (inactive)
same,GI50,[17],> 100 µM (inactive)
same,GI50,[18],> 100 µM (inactive)
same,GI50,[19],> 100 µM (inactive)
same,GI50,[20],> 100 µM (inactive)
same,GI50,[21],> 100 µM (inactive)
same,GI50,[22],> 100 µM (inactive)
same,GI50,[23],> 100 µM (inactive)
same,GI50,[24],> 100 µM (inactive)
same,GI50,[25],> 100 µM (inactive)
same,GI50,[26],> 100 µM (inactive)
same,GI50,[27],> 100 µM (inactive)
same,GI50,[28],> 100 µM (inactive)
same,GI50,[29],> 100 µM (inactive)
same,GI50,[30],> 100 µM (inactive)
same,GI50,[31],> 100 µM (inactive)
same,GI50,[32],> 100 µM (inactive)
same,GI50,[33],> 100 µM (inactive)
same,GI50,[34],> 100 µM (inactive)
same,GI50,[35],> 100 µM (inactive)
same,GI50,[36],> 100 µM
same,GI50,[37],> 100 µM (inactive)
same,GI50,[38],> 100 µM (inactive)
same,GI50,[39],> 100 µM (inactive)
CC(=O)CCC#Cc1ccccc1C(=O)C(C)=[N+]=[N-],GI50,[1],38 µM (inactive)
same,GI50,[40],71.3 µM (inactive)
same,GI50,[2],6.08 µM (inactive)
same,GI50,[3],49.1 µM (inactive)
same,GI50,[4],16.1 µM (inactive)
same,GI50,[5],18.2 µM (inactive)
same,GI50,[6],19.8 µM (inactive)
same,GI50,[41],> 100 µM (inactive)
same,GI50,[8],30 µM (inactive)
same,GI50,[42],> 100 µM (inactive)
same,GI50,[9],41 µM (inactive)
same,GI50,[10],13.2 µM (inactive)
same,GI50,[11],20.8 µM (inactive)
same,GI50,[12],15.4 µM (inactive)
same,GI50,[43],13 µM (inactive)
same,GI50,[44],37.4 µM (inactive)
same,GI50,[45],23.6 µM (inactive)
same,GI50,[13],42.8 µM (inactive)
same,GI50,[14],14.9 µM (inactive)
same,GI50,[15],57.7 µM (inactive)
same,GI50,[17],26.4 µM (inactive)
same,GI50,[18],36.1 µM (inactive)
same,GI50,[19],50.9 µM (inactive)
same,GI50,[20],97.3 µM (inactive)
same,GI50,[21],15.6 µM (inactive)
same,GI50,[22],> 100 µM (inactive)
same,GI50,[46],97.1 µM (inactive)
same,GI50,[23],81.8 µM (inactive)
same,GI50,[24],17.4 µM (inactive)
same,GI50,[47],72.3 µM (inactive)
same,GI50,[48],39.5 µM (inactive)
same,GI50,[49],36.8 µM (inactive)
same,GI50,[25],28.5 µM (inactive)
same,GI50,[27],53 µM (inactive)
same,GI50,[50],53.6 µM (inactive)
same,GI50,[29],32.2 µM (inactive)
same,GI50,[51],79.8 µM (inactive)
same,GI50,[30],45 µM (inactive)
same,GI50,[52],44.4 µM (inactive)
same,GI50,[31],44.8 µM (inactive)
same,GI50,[32],48.5 µM (inactive)
same,GI50,[33],> 100 µM (inactive)
same,GI50,[53],18.1 µM (inactive)
same,GI50,[54],19.6 µM (inactive)
same,GI50,[55],79.1 µM (inactive)
same,GI50,[34],52.7 µM (inactive)
same,GI50,[36],48.8 µM
same,GI50,[37],20.5 µM (inactive)
same,GI50,[38],12.9 µM (inactive)
same,GI50,[56],45 µM (inactive)
same,GI50,[39],20.3 µM (inactive)
CSc1nc2c(ncn2C2OC(CO)C(O)C(O)C2O)c(=O)[nH]1 (stereo not drawn),GI50,[1],> 100 µM (inactive)
same,GI50,[40],> 92.5 µM (inactive)
same,GI50,[2],> 100 µM (inactive)
same,GI50,[3],> 100 µM (inactive)
same,GI50,[4],> 100 µM (inactive)
same,GI50,[5],> 100 µM (inactive)
same,GI50,[6],> 100 µM (inactive)
same,GI50,[41],> 100 µM (inactive)
same,GI50,[8],> 100 µM (inactive)
same,GI50,[57],> 100 µM (inactive)
same,GI50,[42],> 100 µM (inactive)
same,GI50,[9],> 100 µM (inactive)
same,GI50,[10],> 100 µM (inactive)
same,GI50,[11],> 100 µM (inactive)
same,GI50,[12],> 100 µM (inactive)
same,GI50,[43],> 100 µM (inactive)
same,GI50,[44],> 100 µM (inactive)
same,GI50,[45],> 100 µM (inactive)
same,GI50,[13],> 100 µM (inactive)
same,GI50,[14],> 100 µM (inactive)
same,GI50,[15],> 100 µM (inactive)
same,GI50,[16],> 100 µM (inactive)
same,GI50,[17],> 100 µM (inactive)
same,GI50,[18],> 100 µM (inactive)
same,GI50,[19],> 100 µM (inactive)
same,GI50,[20],> 100 µM (inactive)
same,GI50,[21],> 100 µM (inactive)
same,GI50,[46],> 100 µM (inactive)
same,GI50,[23],> 100 µM (inactive)
same,GI50,[24],> 100 µM (inactive)
same,GI50,[47],> 100 µM (inactive)
same,GI50,[49],> 83.8 µM (inactive)
same,GI50,[25],> 100 µM (inactive)
same,GI50,[26],> 100 µM (inactive)
same,GI50,[27],> 100 µM (inactive)
same,GI50,[50],> 100 µM (inactive)
same,GI50,[29],> 100 µM (inactive)
same,GI50,[51],> 100 µM (inactive)
same,GI50,[30],> 100 µM (inactive)
same,GI50,[52],> 100 µM (inactive)
same,GI50,[31],> 100 µM (inactive)
same,GI50,[32],> 100 µM (inactive)
same,GI50,[33],> 100 µM (inactive)
same,GI50,[53],> 100 µM (inactive)
same,GI50,[54],> 100 µM (inactive)
same,GI50,[55],> 100 µM (inactive)
same,GI50,[34],> 100 µM (inactive)
same,GI50,[58],> 100 µM (inactive)
same,GI50,[35],> 100 µM (inactive)
same,GI50,[36],> 100 µM
same,GI50,[37],> 100 µM (inactive)
same,GI50,[38],> 100 µM (inactive)
same,GI50,[56],82.2 µM (inactive)
